# Values quoted from earlier work, collected in PMC8583936, “Machine Learning Assisted Approach for Finding Novel High Activity Agonists of Human Ectopic Olfactory Receptors” (International Journal of Molecular Sciences, 2021).
# Target: T1, OR1A1 (Homo sapiens, UniProt Q9P1Q5)
# T1 sequence (Q9P1Q5 1-309): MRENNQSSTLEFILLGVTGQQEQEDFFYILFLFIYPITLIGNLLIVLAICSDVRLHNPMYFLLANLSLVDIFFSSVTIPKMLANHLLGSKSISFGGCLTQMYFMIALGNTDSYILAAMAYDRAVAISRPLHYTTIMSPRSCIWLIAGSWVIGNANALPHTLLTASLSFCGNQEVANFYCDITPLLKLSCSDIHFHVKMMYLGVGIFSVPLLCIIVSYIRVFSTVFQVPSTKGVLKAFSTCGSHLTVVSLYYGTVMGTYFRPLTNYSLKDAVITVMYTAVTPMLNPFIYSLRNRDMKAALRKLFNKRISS
# Details: Table S1; ref Supplement references [1]-[9] as printed after each odorant name; cited from earlier work
row,Molecule,Class (agonist / non-agonist / conflicting info.) for OR1A1
1,C=CC(C)(O)CCC=C(C)CCC=C(C)C (mixture of isomers) [Nerolidol],Agonist
2,"C=C(C)C1CC=C(C)[C@@H](O)C1 (single isomer, unassigned; (-)) [(-)-Carveol]",Agonist
3,"C=C(C)C1CC=C(C)C(OC(C)=O)C1 (single isomer, unassigned; (-)) [(-)Carvyl acetate mix]",Non-agonist
4,"ClC=CCl [1,2-dichlorethylene]",Non-agonist
5,"CC(C)C12CCC(C)(CC1)O2 [1,4-cineole]",Non-agonist
6,"OCCCCCCCCCO [1,9 nonanediol]",Non-agonist
7,"CCc1nccnc1CC [2,3-diethyl pyrazine]",Conflicting info.
8,"Cc1cnc(C)cn1 [2,5 dimethyl pyrazine]",Non-agonist
9,CCCCCCC(Br)C(=O)O (centres unmarked) [2-bromo octanoic acid],Non-agonist
10,CCCC(Br)C(=O)O (centres unmarked) [2-bromovaleric acid],Non-agonist
11,CCc1ccccc1O [2-ethylphenol],Agonist
12,COc1cnccn1 [2-methoxypyrazine],Non-agonist
13,Cc1cnccn1 [2-methylpyrazine],Non-agonist
14,CCCCCCCCCCCCCC(C)=O [2-pentadecanone],Non-agonist
15,CCCCCC=CCCC=O [4-decenal],Agonist
16,CCCCCCCC(=O)CCCCCCC [8-pentadecanone],Non-agonist
17,CC1(C)[C@H]2CC=C(C=O)[C@@H]1C2 [(R)-(-)-myrtenal],Non-agonist
18,O=C(O)CCCCC(=O)O [Adipic acid],Non-agonist
19,COc1ccccc1 [Anisole],Non-agonist

row,Molecule,Class (agonist / non-agonist / conflicting info.) for OR1A1
1,CC(C)(C)c1ccc(CCC=O)cc1 [Bourgeonal],Conflicting info.
2,CCC(Br)C(=O)O (centres unmarked) [Bromobutyric acid],Non-agonist
3,CCCCS [Butane thiol],Non-agonist
4,CC1C(C)(C)C2=C(C(=O)CCC2)C1(C)C (centres unmarked) [Cashmeran],Non-agonist
5,CC(=O)c1cc(C(C)(C)C)cc2c1CCC2(C)C [Celestolide],Agonist
6,CC(C)=CCCC(C)CC(=O)O (centres unmarked) [Citronellic acid],Non-agonist
7,CC1C/C=C/CCCCCCCCC(=O)C1 (centres unmarked) [Cosmone],Agonist
8,O=C1CCCCCCCCC1 [Cyclodecanone],Non-agonist
9,C1CCCCCCCCCCCCCC1 [Cyclopentadecane],Non-agonist
10,OC1CCCCCCCCCCCCCC1 [Cyclopentadecanol],Non-agonist
11,O=C1CCCCCCCCCC1 [Cycloundecanone],Non-agonist
12,"CCCCCCC/C=C/C=C/C=O [E,E-2,4-dodecadienal]",Non-agonist
13,"CC/C=C/CC/C=C/C=O [E,E-26-nonadienal]",Non-agonist
14,CCCCC/C=C/CCC=O [E-4-decanal],Agonist
15,O=C1CCCCCCCCCCCCCCO1 [Exaltolide],Non-agonist
16,CC(C)=CCC/C(C)=C/CC/C(C)=C/CO [Farnesol],Non-agonist
17,CC1COCc2cc3c(cc21)C(C)(C)C(C)C3(C)C (centres unmarked) [Galaxolide],Non-agonist
18,O=C1CCCCCC/C=C\CCCCCCC1 [Globanone],Non-agonist
19,O=C1CCCCCCCCC/C=C/CCCO1 [Habanolide],Non-agonist

row,Molecule,Class (agonist / non-agonist / conflicting info.) for OR1A1
1,CCC(=O)OCC(C)(C)OC(C)C1CCCC(C)(C)C1 (centres unmarked) [Helvetolide],Non-agonist
2,CCCCCCCC(=O)OCCC(C)C [Isoamyl octanoate],Non-agonist
3,CC(C)CS [Isobutyl mercaptan],Non-agonist
4,CCCCCCCC(=O)OC [Methyl octanoate],Non-agonist
5,CCCC(C)C=O (centres unmarked) [Methyl pentanal],Non-agonist
6,C[C@@H]1CCCCCCCCCCCCC(=O)C1 [Muscone],Conflicting info.
7,CC(C)=CCC/C(C)=C\CO [Nerol],Agonist
8,CC(=O)OC/C=C(/C)CCC=C(C)C [Nerylacetate],Non-agonist
9,CCCCCCCCC=O [Nonanal],Conflicting info.
10,CCCCCCCC(=O)OCCc1ccccc1 [Phenethyl octanoate],Non-agonist
11,c1cnccn1 [Pyrazine],Conflicting info.
12,C1CCNC1 [Pyrrolidine],Non-agonist
13,O=C(O)CCC(=O)O [Succinic acid],Non-agonist
14,C=CC(=C)CC/C=C(\C)CCC=C(C)C [Trans-beta-farnesene],Non-agonist
15,CCCCCCCCCCC=O [Undecanal],Non-agonist
16,CC/C=C\CCCCCC=O [Z-7-decanal],Agonist
17,Ambrettolide,Non-agonist
18,Farnesene,Non-agonist

# Same assay, conditions: cited from earlier work
row,Molecule,Class (agonist / non-agonist / conflicting info.) for OR1A1
1,C=CC(O)CCCCC (centres unmarked) [1-octen-3-ol],Non-agonist
2,"Cc1nccnc1C [2,3-dimethylpyrazine]",Non-agonist
3,CCCCC(Br)C(=O)O (centres unmarked) [2-bromohexanoic acid],Non-agonist
4,CCc1cnccn1 [2-ethylpyrazine],Non-agonist
5,COc1ccc(C)cc1 [4-methylanisole],Non-agonist
6,CC(C)=CCC[C@@H](C)CCO [(R)-(+)-citronellol],Agonist
7,COC(OC)c1ccccc1 [Benzaldehyde dimethyl acetal],Non-agonist
8,CC(C)=CCCC(C)=CC#N [Citralva],Non-agonist
9,O=C1CCCCCCCCCCCCCC1 [Cyclopentadecanone],Non-agonist
10,c1ccc2[nH]ccc2c1 [Indole],Non-agonist
11,C/C=C/c1ccc(OC)c(OC)c1 [Methyl isoeugenol],Agonist
12,CCC(=O)OC [Methyl propionate],Non-agonist
13,CC(=O)c1c(C)c([N+](=O)[O-])c(C(C)(C)C)c([N+](=O)[O-])c1C [Musk ketone],Non-agonist
14,CC(C)=CCC/C(C)=C\COC(=O)C(C)C [Neryl isobutyrate],Non-agonist
15,Oc1ccccc1 [Phenol],Non-agonist
16,CCC(=O)c1ccccc1 [Propiophenone],Agonist
17,CC(=O)CCc1ccc(O)cc1 [Raspberry ketone],Non-agonist
18,Cc1ccc(C(C)C)c(O)c1 [Thymol],Conflicting info.
19,CC(=O)c1cc2c(cc1C)C(C)(C)C(C)CC2(C)C (centres unmarked) [Tonalide],Non-agonist
20,O=C(O)/C=C(\CC(=O)O)C(=O)O [Trans-Aconitic acid],Non-agonist
21,CN(C)C [Trimethylamine],Non-agonist
22,(+)-Menthone,Agonist
23,(S)-(-)-citronellal,Agonist

# Target: T2, OR2W1 (Homo sapiens, UniProt Q9Y3N9)
# T2 sequence (Q9Y3N9 1-320): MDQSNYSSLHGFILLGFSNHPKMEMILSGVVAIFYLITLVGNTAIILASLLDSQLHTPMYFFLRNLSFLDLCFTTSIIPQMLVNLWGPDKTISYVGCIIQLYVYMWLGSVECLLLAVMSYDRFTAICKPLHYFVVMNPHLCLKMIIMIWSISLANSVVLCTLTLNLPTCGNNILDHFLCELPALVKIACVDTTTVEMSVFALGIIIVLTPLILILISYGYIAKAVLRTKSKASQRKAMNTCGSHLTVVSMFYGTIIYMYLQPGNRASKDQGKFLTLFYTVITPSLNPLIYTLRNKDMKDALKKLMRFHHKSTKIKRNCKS
# Details: Table S2; ref Supplement references [2]-[12] as printed after each odorant name; cited from earlier work
row,Molecule,Class (agonist / non-agonist / antagonist / conflicting info.) for OR2W1
1,"CCCCCC(=O)CC(C)=O [2,4-nonanedione]",Agonist
2,"CCCCC(=O)CC(C)=O [2,4-octanedione]",Agonist
3,"CC(=O)CC(=O)CC(C)C [6-Methyl-2,4-heptanedione]",Agonist

# Same assay, conditions: cited from earlier work
row,Molecule,Class (agonist / non-agonist / antagonist / conflicting info.) for OR2W1
1,CC(C)=CCC[C@@H](C)CC=O [Citronellal],Agonist
